A word on the pIC50: it is −log10 of the IC50, conventionally taken in molar units. High values mean a small IC50, low ones a large IC50. Broadly, the IC50 is the concentration that gives 50% inhibition.

These results are taken from ChEMBL document CHEMBL1123313, “Folate analogues. 25. Synthesis and biological evaluation of N10-propargylfolic acid and its reduced derivatives” (J Med Chem, 1986).

pIC50: −log10 of the molar value. Values after ≈ are worked out from the molar mass of the structure shown.

One assay has as its target Dihydrofolate reductase (Lactobacillus casei, UniProt P00381).
In assay [1] the test system is Lacticaseibacillus casei. Description: Inhibitory activity against Lactobacillus casei MTX-resistant. The assay is classed as functional, organism-based.
Assay [2] has as its target T1, Thymidylate synthase (Lactobacillus casei, UniProt P00469).
T1 sequence (P00469 whole entry): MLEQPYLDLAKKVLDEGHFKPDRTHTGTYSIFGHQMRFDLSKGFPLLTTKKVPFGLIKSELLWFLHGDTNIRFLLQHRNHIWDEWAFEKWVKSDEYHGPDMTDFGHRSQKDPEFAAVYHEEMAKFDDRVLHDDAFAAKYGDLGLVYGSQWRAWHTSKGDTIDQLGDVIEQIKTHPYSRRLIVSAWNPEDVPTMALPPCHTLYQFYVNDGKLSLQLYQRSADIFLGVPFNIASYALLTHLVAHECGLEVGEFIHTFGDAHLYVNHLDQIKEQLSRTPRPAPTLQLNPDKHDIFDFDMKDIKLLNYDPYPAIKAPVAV
In words: Inhibitory activity against thymidylate synthase derived from Lactobacillus casei. Also on record: species or system Lacticaseibacillus casei.

Assay [3] deals with Enterococcus faecium. In words: Inhibitory activity against Streptococcus faecium ATCC 8043. It is filed as functional, organism-based.
Assay [4] relates to Enterococcus faecium. In words: Inhibitory activity against Streptococcus faecium MTX-resistant. It is filed as functional, organism-based.
The subject of assay [5] is Lacticaseibacillus casei. In words: Inhibitory activity against Lactobacillus casei ATCC 7469. The assay is classed as functional, organism-based.
Assay [6] addresses T2, Thymidylate synthase (Mus musculus, UniProt P07607). Description: Inhibitory activity against thymidylate synthase in the intact L1210 cells. It is filed as cell-based.
For assay [7], the target named is T2, Thymidylate synthase. Description: Inhibitory activity against the thymidylate synthase in the Permeabilized L1210 cells. The assay is classed as cell-based.
The mark [8] stands for this setting: Lacticaseibacillus casei, read-out: IC50.

T2 sequence (P07607 whole entry): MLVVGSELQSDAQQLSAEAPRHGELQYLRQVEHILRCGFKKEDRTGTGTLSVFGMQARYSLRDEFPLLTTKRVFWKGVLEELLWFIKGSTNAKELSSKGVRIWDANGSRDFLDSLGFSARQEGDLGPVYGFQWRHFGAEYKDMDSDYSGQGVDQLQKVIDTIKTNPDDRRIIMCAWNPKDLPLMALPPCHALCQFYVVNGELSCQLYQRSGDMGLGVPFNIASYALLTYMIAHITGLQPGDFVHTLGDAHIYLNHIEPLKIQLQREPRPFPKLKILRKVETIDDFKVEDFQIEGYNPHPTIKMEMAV
Chain of Dihydrofolate reductase (P00381 whole entry): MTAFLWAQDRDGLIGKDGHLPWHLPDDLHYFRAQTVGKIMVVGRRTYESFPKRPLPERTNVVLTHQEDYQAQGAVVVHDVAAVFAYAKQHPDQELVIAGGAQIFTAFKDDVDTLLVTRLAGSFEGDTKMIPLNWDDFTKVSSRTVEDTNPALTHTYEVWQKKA
Description for Dihydrofolate reductase: Inhibitory activity against dihydrofolate reductase derived from Lactobacillus casei

`C#CCN(CC1=Nc2c(O)nc(N)nc2NC1)c1ccc(C(=O)NC(CCC(=O)O)C(=O)O)cc1` (stereo not drawn): the pIC50 is below 4.30 against Dihydrofolate reductase and 4.30 at Thymidylate synthase [2]. Moreover, the IC50 in the assay with Lacticaseibacillus casei [1] (setting [8]) is above 2 µg/mL; with Enterococcus faecium [3], 0.13 ng/mL (≈ 0.00027 µM); with Enterococcus faecium [4], 0.024 µg/mL (≈ 0.0498 µM); in the assay on Lacticaseibacillus casei [5] it was 36 ng/mL (≈ 0.0748 µM).
Regarding `C#CCN(CC1CNc2nc(N)nc(O)c2N1)c1ccc(C(=O)NC(CCC(=O)O)C(=O)O)cc1` (stereo not drawn), the pIC50 is below 3.85 at Dihydrofolate reductase and 4.49 on Thymidylate synthase [2]. The IC50 with Lacticaseibacillus casei [1] (setting [8]) was above 2 µg/mL; with Enterococcus faecium [3], 0.08 ng/mL (≈ 0.000165 µM); with Enterococcus faecium [4] it was above 2 µg/mL; in the assay on Lacticaseibacillus casei [5], above 2000 ng/mL.
On to `CN(Cc1cnc2nc(N)nc(O)c2n1)c1ccc(C(=O)NC(CCC(=O)O)C(=O)O)cc1` (stereo not drawn), for which the pIC50 against Thymidylate synthase [6] was below 3.00; on Thymidylate synthase [7], 3.18.
On to `C#CCN(Cc1cnc2nc(N)nc(O)c2n1)c1ccc(C(=O)O)cc1`, for which the pIC50 at Dihydrofolate reductase is below 4.00; at Thymidylate synthase [2], below 3.54. Moreover, the IC50 in the assay with Lacticaseibacillus casei [1] (setting [8]) was above 2 µg/mL; in the assay with Enterococcus faecium [3] it was 0.76 ng/mL (≈ 0.00217 µM); in the assay on Enterococcus faecium [4], above 2 µg/mL; in the assay on Lacticaseibacillus casei [5] it was above 2000 ng/mL.
Regarding `C#CCN(Cc1cnc2nc(N)nc(O)c2n1)c1ccc(C(=O)NC(CCC(=O)O)C(=O)O)cc1` (stereo not drawn), the pIC50 against Dihydrofolate reductase was below 4.00; against Thymidylate synthase [6], below 2.52; at Thymidylate synthase [2], 5.41; on Thymidylate synthase [7], 5.12. Further, the IC50 in the assay with Lacticaseibacillus casei [1] (setting [8]) was above 2 µg/mL; in the assay on Enterococcus faecium [3], 0.56 ng/mL (≈ 0.00117 µM); in the assay on Enterococcus faecium [4], above 2 µg/mL; with Lacticaseibacillus casei [5] it was above 2000 ng/mL.
As for `C#CCN(Cc1ccc2[nH]c(N)nc(=O)c2c1)c1ccc(C(=O)NC(CCC(=O)O)C(=O)O)cc1` (stereo not drawn), in the assay on Lacticaseibacillus casei [1] (setting [8]), the IC50 was 2 µg/mL (≈ 4.19 µM).
For the molecule `Nc1nc2ncc(CNc3ccc(C(=O)N[C@@H](CCC(=O)O)C(=O)O)cc3)nc2c(=O)[nH]1` [FOLIC ACID], the pIC50 at Thymidylate synthase [6] was below 3.00; against Thymidylate synthase [7], 2.74.
In the case of `CN(Cc1cnc2nc(N)nc(N)c2n1)c1ccc(C(=O)N[C@@H](CCC(=O)O)C(=O)O)cc1` [METHOTREXATE], the IC50 was above 500 µg/mL with Lacticaseibacillus casei [1] and 0.02 ng/mL (≈ 4.4e-05 µM) with Lacticaseibacillus casei [5].
